From patent publication US20110182982A1, “LIPOSOME TREATMENT OF VIRAL INFECTIONS” (University of Oxford, priority 2006, published 2011)

Assays:
CHO cells = assay: Liposome uptake (Rh-PE) and intracellular calcein dequenching; format: cell-based, Chinese hamster
Protocol: The effects of different DNJ compounds on the cellular uptake and intracellular release, when encapsulated inside DCPP liposomes, was determined by diluting compounds in 80-mM calcein and incorporating Rh-PE in liposome membranes as previously described, with the final liposome composition being DOPE:CHEMS:PEG-PE:Rh-PE (DCPP-Rh, 6:4:0.3:0.1) Liposomes encapsulating calcein alone, 10-μM DNJ, 1-mM DNJ, 10-μM NB-DNJ, 1-mM NB-DNJ, 10-μM NN-DNJ, or 1-mM NN-DNJ, were incubated with CHO cells for 45 min before liposomes were removed and cells were washed twice in 1×PBS. Cells were then analyzed in a fluorometer to measure calcein dequenching (λex=490 and λem=520 nm) and rhodamine fluorescence (λex=584 and λem=612 nm). Data represent the mean±S.D. obtained from triplicates of four independent experiments, where mean rhodamine fluorescence values reflect the binding and uptake of liposomes and the mean calcein fluorescence reflects the intracellular dequenching of the dye (i.e. dye released from liposomes into intracellular compartments). Results are expressed as the percent fluorescence measured following incubation with DNJ-containing liposomes as compared to the calcein/PBS-only liposome control (=100% on the x axis).
The calculated ratio of calcein to rhodamine fluorescence is taken as a measure of the amount of aqueous marker released per cell-associated liposome, and represents the efficiency of intracellular delivery.

HIV-1 isolate: JR-FL = assay: p24 secretion of HIV-1-infected PBMCs; format: cell-based; details: for % p24 secretion Week 1-rb / % p24 secretion Week 2-rb / % p24 secretion Week 3-rb / % p24 secretion Week 4-rb: treatment removed 2 weeks
Protocol: (§1) Clearance of HIV-1 primary isolates from infected human cells by NB-DNJ was assessed using phytohemagglutinin (PHA)-activated peripheral blood mononuclear cells (PBMCs) as indicator cells and the determination of p24 antigen production as the end point.
(§2) PBMCs from four normal (uninfected) donors were isolated, pooled, and stimulated with PHA (5 μg/ml) for 48 h followed by PHA plus interleukin-2 (40 U/ml) for 72 h in RPMI 1640 medium containing 10% heat-inactivated fetal bovine serum (FBS), 100 U of penicillin per ml, 100 μg of streptomycin per ml, and 2 mM L-glutamine. All experiments were performed in 96-well microtiter plates. To infect cells, 100 μl of PHA-activated PBMCs (5×10^5/ml) was added to each well, after which an equal volume containing 100 50% tissue culture infective doses (TCID50) of primary isolate stock was added. After an overnight incubation, the cells were washed three times with tissue culture medium, and finally re-suspended in medium containing the appropriate liposome treatment or free NB-DNJ. On day 7, approximately 10-30% of the culture volume containing secreted HIV-1 virions was used to infect naïve PBMCs for a second round of infection and treatment (volume transferred was calculated to be the volume necessary for the untreated control of that isolate to infect naïve cells at a TCID50=100). Rounds of treatment and infection of naïve cells were continued over four weeks, and at every time point cellular supernatant containing secreted virions was isolated and used in capture ELISAs to determine p24 concentration (measure of secretion). Additionally, supernatant isolated at each time point throughout treatment was used to infect naïve PBMCs (TCID50=100) for two weeks with no further treatment, which allowed for the observation of a rebound in viral activity.
(§3) PBMCs infected with 8 primary isolates (listed in Table 3) were incubated in the presence of free NB-DNJ (concentrations ranging 0-1 mM) or liposome-encapsulated NB-DNJ (0-3.75 μM, final lipid concentration of 50 μM).

HIV-1 isolate: UG92021 = assay: p24 secretion of HIV-1-infected PBMCs; format: cell-based; details: for % p24 secretion Week 1-rb / % p24 secretion Week 2-rb / % p24 secretion Week 3-rb / % p24 secretion Week 4-rb: treatment removed 2 weeks
Protocol: as §1, §2, §3

HIV-1 isolate: 97USNG30 = assay: p24 secretion of HIV-1-infected PBMCs; format: cell-based; details: for % p24 secretion Week 1-rb / % p24 secretion Week 2-rb / % p24 secretion Week 3-rb / % p24 secretion Week 4-rb: treatment removed 2 weeks
Protocol: as §1, §2, §3

In the case of `CCCCN1C[C@H](O)[C@@H](O)[C@H](O)[C@H]1CO` [NB-DNJ, N-butyl-1,5-dideoxy-1,5-imino-D-glucitol], the “Efficiency (calcein/rhodamine, AU)” value (CHO cells; 10 μM encapsulated in DCPP liposomes) was 21.7 ± 1.5 AU, the “increase of efficiency of intracellular delivery” value (CHO cells; 10 μM in DCPP liposomes) was “approximately 2 fold” and the “Efficiency (calcein/rhodamine, AU)” value (CHO cells; 1 mM encapsulated in DCPP liposomes) was 28.4 ± 2.4 AU. For the same compound, the “increase of efficiency of intracellular delivery” value (CHO cells; 1 mM in DCPP liposomes) was about 3 fold, the “increase in dequenched calcein” value (CHO cells; 1-mM formulation in DCPP-Rh liposomes) was about 2.3 fold and the “increase in dequenched calcein” value (CHO cells; 10-μM formulation in DCPP-Rh liposomes) was about 1.8 fold. The “reduction in viral secretion” value (HIV-1 isolate: JR-FL; 1 mM free in medium, first week) was 50%, the “% p24 secretion Week 1” value (HIV-1 isolate: JR-FL; NB-DNJ 250 uM) was 107% and the “% p24 secretion Week 2” value (HIV-1 isolate: JR-FL; NB-DNJ 250 uM) was 105%. For the same compound, the “% p24 secretion Week 3” value (HIV-1 isolate: JR-FL; NB-DNJ 250 uM) was 89%, the “% p24 secretion Week 4” value (HIV-1 isolate: JR-FL; NB-DNJ 250 uM) was 93% and the “% p24 secretion Week 1-rb” value (HIV-1 isolate: JR-FL; NB-DNJ 250 uM) was 104%. The “% p24 secretion Week 2-rb” value (HIV-1 isolate: JR-FL; NB-DNJ 250 uM) was 101%, the “% p24 secretion Week 3-rb” value (HIV-1 isolate: JR-FL; NB-DNJ 250 uM) was 97% and the “% p24 secretion Week 4-rb” value (HIV-1 isolate: JR-FL; NB-DNJ 250 uM) was 91%. For the same compound, the “% p24 secretion Week 1” value (HIV-1 isolate: JR-FL; NB-DNJ 500 uM) was 64%, the “% p24 secretion Week 2” value (HIV-1 isolate: JR-FL; NB-DNJ 500 uM) was 24% and the “% p24 secretion Week 3” value (HIV-1 isolate: JR-FL; NB-DNJ 500 uM) was 5%. The “% p24 secretion Week 4” value (HIV-1 isolate: JR-FL; NB-DNJ 500 uM) was 0%, the “% p24 secretion Week 1-rb” value (HIV-1 isolate: JR-FL; NB-DNJ 500 uM) was 75% and the “% p24 secretion Week 2-rb” value (HIV-1 isolate: JR-FL; NB-DNJ 500 uM) was 9%. For the same compound, the “% p24 secretion Week 3-rb” value (HIV-1 isolate: JR-FL; NB-DNJ 500 uM) was 4%, the “% p24 secretion Week 4-rb” value (HIV-1 isolate: JR-FL; NB-DNJ 500 uM) was 2% and the “% p24 secretion Week 1” value (HIV-1 isolate: JR-FL; NB-DNJ 1000 uM) was 44%. The “% p24 secretion Week 2” value (HIV-1 isolate: JR-FL; NB-DNJ 1000 uM) was 9%, the “% p24 secretion Week 3” value (HIV-1 isolate: JR-FL; NB-DNJ 1000 uM) was 1% and the “% p24 secretion Week 4” value (HIV-1 isolate: JR-FL; NB-DNJ 1000 uM) was 0%. The “% p24 secretion Week 1-rb” value (HIV-1 isolate: JR-FL; NB-DNJ 1000 uM) was 56%, the “% p24 secretion Week 2-rb” value (HIV-1 isolate: JR-FL; NB-DNJ 1000 uM) was 5% and the “% p24 secretion Week 3-rb” value (HIV-1 isolate: JR-FL; NB-DNJ 1000 uM) was 1%. For the same compound, the “% p24 secretion Week 4-rb” value (HIV-1 isolate: JR-FL; NB-DNJ 1000 uM) was 0%, the “% p24 secretion Week 1” value (HIV-1 isolate: UG92021; NB-DNJ 250 uM) was 90% and the “% p24 secretion Week 2” value (HIV-1 isolate: UG92021; NB-DNJ 250 uM) was 83%. The “% p24 secretion Week 3” value (HIV-1 isolate: UG92021; NB-DNJ 250 uM) was 88%, the “% p24 secretion Week 4” value (HIV-1 isolate: UG92021; NB-DNJ 250 uM) was 77% and the “% p24 secretion Week 1-rb” value (HIV-1 isolate: UG92021; NB-DNJ 250 uM) was 110%. For the same compound, the “% p24 secretion Week 2-rb” value (HIV-1 isolate: UG92021; NB-DNJ 250 uM) was 101%, the “% p24 secretion Week 3-rb” value (HIV-1 isolate: UG92021; NB-DNJ 250 uM) was 91% and the “% p24 secretion Week 4-rb” value (HIV-1 isolate: UG92021; NB-DNJ 250 uM) was 85%. For the same compound, the “% p24 secretion Week 1” value (HIV-1 isolate: UG92021; NB-DNJ 500 uM) was 85%, the “% p24 secretion Week 2” value (HIV-1 isolate: UG92021; NB-DNJ 500 uM) was 56% and the “% p24 secretion Week 3” value (HIV-1 isolate: UG92021; NB-DNJ 500 uM) was 23%. For the same compound, the “% p24 secretion Week 4” value (HIV-1 isolate: UG92021; NB-DNJ 500 uM) was 8%, the “% p24 secretion Week 1-rb” value (HIV-1 isolate: UG92021; NB-DNJ 500 uM) was 98% and the “% p24 secretion Week 2-rb” value (HIV-1 isolate: UG92021; NB-DNJ 500 uM) was 62%. The “% p24 secretion Week 3-rb” value (HIV-1 isolate: UG92021; NB-DNJ 500 uM) was 27%, the “% p24 secretion Week 4-rb” value (HIV-1 isolate: UG92021; NB-DNJ 500 uM) was 19% and the “% p24 secretion Week 1” value (HIV-1 isolate: UG92021; NB-DNJ 1000 uM) was 61%. The “% p24 secretion Week 2” value (HIV-1 isolate: UG92021; NB-DNJ 1000 uM) was 21%, the “% p24 secretion Week 3” value (HIV-1 isolate: UG92021; NB-DNJ 1000 uM) was 5% and the “% p24 secretion Week 4” value (HIV-1 isolate: UG92021; NB-DNJ 1000 uM) was 0%. The “% p24 secretion Week 1-rb” value (HIV-1 isolate: UG92021; NB-DNJ 1000 uM) was 72%, the “% p24 secretion Week 2-rb” value (HIV-1 isolate: UG92021; NB-DNJ 1000 uM) was 19% and the “% p24 secretion Week 3-rb” value (HIV-1 isolate: UG92021; NB-DNJ 1000 uM) was 3%. The “% p24 secretion Week 4-rb” value (HIV-1 isolate: UG92021; NB-DNJ 1000 uM) was 0%, the “% p24 secretion Week 1” value (HIV-1 isolate: 97USNG30; NB-DNJ 250 uM) was 96% and the “% p24 secretion Week 2” value (HIV-1 isolate: 97USNG30; NB-DNJ 250 uM) was 102%. The “% p24 secretion Week 3” value (HIV-1 isolate: 97USNG30; NB-DNJ 250 uM) was 100%, the “% p24 secretion Week 4” value (HIV-1 isolate: 97USNG30; NB-DNJ 250 uM) was 95% and the “% p24 secretion Week 1-rb” value (HIV-1 isolate: 97USNG30; NB-DNJ 250 uM) was 112%. For the same compound, the “% p24 secretion Week 2-rb” value (HIV-1 isolate: 97USNG30; NB-DNJ 250 uM) was 109%, the “% p24 secretion Week 3-rb” value (HIV-1 isolate: 97USNG30; NB-DNJ 250 uM) was 97% and the “% p24 secretion Week 4-rb” value (HIV-1 isolate: 97USNG30; NB-DNJ 250 uM) was 101%. For the same compound, the “% p24 secretion Week 1” value (HIV-1 isolate: 97USNG30; NB-DNJ 500 uM) was 74%, the “% p24 secretion Week 2” value (HIV-1 isolate: 97USNG30; NB-DNJ 500 uM) was 45% and the “% p24 secretion Week 3” value (HIV-1 isolate: 97USNG30; NB-DNJ 500 uM) was 8%. The “% p24 secretion Week 4” value (HIV-1 isolate: 97USNG30; NB-DNJ 500 uM) was 3%, the “% p24 secretion Week 1-rb” value (HIV-1 isolate: 97USNG30; NB-DNJ 500 uM) was 82% and the “% p24 secretion Week 2-rb” value (HIV-1 isolate: 97USNG30; NB-DNJ 500 uM) was 19%. The “% p24 secretion Week 3-rb” value (HIV-1 isolate: 97USNG30; NB-DNJ 500 uM) was 7%, the “% p24 secretion Week 4-rb” value (HIV-1 isolate: 97USNG30; NB-DNJ 500 uM) was 1% and the “% p24 secretion Week 1” value (HIV-1 isolate: 97USNG30; NB-DNJ 1000 uM) was 46%. For the same compound, the “% p24 secretion Week 2” value (HIV-1 isolate: 97USNG30; NB-DNJ 1000 uM) was 9%, the “% p24 secretion Week 3” value (HIV-1 isolate: 97USNG30; NB-DNJ 1000 uM) was 0% and the “% p24 secretion Week 4” value (HIV-1 isolate: 97USNG30; NB-DNJ 1000 uM) was 0%. For the same compound, the “% p24 secretion Week 1-rb” value (HIV-1 isolate: 97USNG30; NB-DNJ 1000 uM) was 53%, the “% p24 secretion Week 2-rb” value (HIV-1 isolate: 97USNG30; NB-DNJ 1000 uM) was 3% and the “% p24 secretion Week 3-rb” value (HIV-1 isolate: 97USNG30; NB-DNJ 1000 uM) was 0%. For the same compound, the “% p24 secretion Week 4-rb” value (HIV-1 isolate: 97USNG30; NB-DNJ 1000 uM) was 0%.
